Source: US9938281B2 (Merck Sharp & Dohme Corp., priority 2012, dated 2018)
pIC50: −log10 of the molar value.

Legend:
PI3K-delta = target: T1, PI3K-delta (Homo sapiens, UniProt O00329); experiment: HTRF PI3K biochemical assay, delta isoform; conditions: form screened (neutral or TFA salt) given, read-out: PI3Kdelta IC50
T1 construct: purchased Upstate; Millipore 14-604

PI3K-alpha = target: T2, PI3K-alpha (Homo sapiens, UniProt P42336); experiment: HTRF PI3K biochemical assay, alpha isoform; conditions: ratio PI3K-alpha IC50 value / PI3K-delta IC50 value
T2 construct: purchased Upstate; Millipore 14-602
T2 sequence (P42336 whole entry, canonical isoform): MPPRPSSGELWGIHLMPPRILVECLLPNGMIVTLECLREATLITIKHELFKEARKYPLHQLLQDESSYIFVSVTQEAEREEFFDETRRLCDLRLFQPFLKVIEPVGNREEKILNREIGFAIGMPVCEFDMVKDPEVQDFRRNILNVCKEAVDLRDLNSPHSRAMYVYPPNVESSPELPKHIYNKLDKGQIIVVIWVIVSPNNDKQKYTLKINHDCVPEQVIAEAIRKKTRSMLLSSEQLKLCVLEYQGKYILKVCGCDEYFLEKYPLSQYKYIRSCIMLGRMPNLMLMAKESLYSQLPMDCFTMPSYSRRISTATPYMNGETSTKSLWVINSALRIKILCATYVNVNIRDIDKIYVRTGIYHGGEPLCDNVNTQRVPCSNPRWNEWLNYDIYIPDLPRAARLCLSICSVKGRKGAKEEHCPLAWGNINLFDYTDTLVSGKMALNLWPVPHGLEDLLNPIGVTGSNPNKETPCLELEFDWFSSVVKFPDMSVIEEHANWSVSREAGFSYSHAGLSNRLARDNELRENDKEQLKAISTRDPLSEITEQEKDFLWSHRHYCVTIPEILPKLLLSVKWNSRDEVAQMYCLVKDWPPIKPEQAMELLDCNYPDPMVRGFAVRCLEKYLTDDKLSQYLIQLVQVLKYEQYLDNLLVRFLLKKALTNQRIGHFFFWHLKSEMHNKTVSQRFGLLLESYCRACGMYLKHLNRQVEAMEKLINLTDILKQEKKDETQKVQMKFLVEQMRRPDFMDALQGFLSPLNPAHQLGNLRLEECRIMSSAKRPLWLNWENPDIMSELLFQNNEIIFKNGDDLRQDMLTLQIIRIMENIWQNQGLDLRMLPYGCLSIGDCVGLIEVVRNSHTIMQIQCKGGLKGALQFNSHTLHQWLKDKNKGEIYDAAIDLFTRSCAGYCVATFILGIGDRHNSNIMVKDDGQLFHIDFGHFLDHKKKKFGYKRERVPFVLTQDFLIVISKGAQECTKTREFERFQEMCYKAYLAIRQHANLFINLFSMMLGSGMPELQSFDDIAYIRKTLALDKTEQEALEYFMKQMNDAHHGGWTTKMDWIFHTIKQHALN
T2 sequence (P27986 whole entry partner, canonical isoform): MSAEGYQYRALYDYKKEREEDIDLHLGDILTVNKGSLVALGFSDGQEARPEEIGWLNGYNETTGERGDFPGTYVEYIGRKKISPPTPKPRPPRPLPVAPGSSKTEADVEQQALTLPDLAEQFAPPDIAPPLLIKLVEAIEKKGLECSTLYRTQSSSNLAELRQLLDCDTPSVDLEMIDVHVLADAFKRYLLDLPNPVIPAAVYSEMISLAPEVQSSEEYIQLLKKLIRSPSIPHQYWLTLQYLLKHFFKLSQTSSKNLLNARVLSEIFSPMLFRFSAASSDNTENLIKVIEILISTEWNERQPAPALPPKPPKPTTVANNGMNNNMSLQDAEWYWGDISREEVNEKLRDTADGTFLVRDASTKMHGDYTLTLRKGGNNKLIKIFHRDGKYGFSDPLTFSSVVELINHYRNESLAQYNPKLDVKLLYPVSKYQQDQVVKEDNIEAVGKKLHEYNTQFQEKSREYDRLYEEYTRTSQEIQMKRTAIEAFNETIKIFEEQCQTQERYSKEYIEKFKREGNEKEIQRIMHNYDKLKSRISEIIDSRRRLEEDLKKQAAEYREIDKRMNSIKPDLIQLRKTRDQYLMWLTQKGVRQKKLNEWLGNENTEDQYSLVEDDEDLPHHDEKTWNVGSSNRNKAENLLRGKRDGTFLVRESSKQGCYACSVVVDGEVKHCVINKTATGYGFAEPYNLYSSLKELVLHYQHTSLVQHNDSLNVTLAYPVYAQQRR
From the text: The PI3-Kinase biochemical assays were developed to measure the intrinsic potency and compound dependent inhibition of the alpha, beta, delta, and gamma PI3K isoform enzymes. This assay was developed and further optimized from a kit produced by Upstate (Millipore catalog #33-047) and has been configured for HTS and SAR screening. Briefly, this procedure exploits the exquisite specificity and high affinity binding of enzyme reaction substrate phosphatidyl(3,4,5)triphosphate (PIP3) to the GRP1 pleckstrin homology (PH) domain to generate the signal. In the absence of PIP3, an HTRF (Homogeneous Time-Resolved Fluorescence energy transfer) complex is formed consisting of europium (Eu)-labeled anti-GST, GSTtagged GRP1-PH domain, biotin-PIP3 and streptavidin conjugated APC. The native PIP3 produced by PI3-Kinase activity disrupts in a competitive manner the biotin-PIP3 from the PH domain, resulting in the loss of energy transfer (HTRF complex) and a decrease in the signal. The format of this assay is the same for all 4 isoforms of PI3K; the differences lie in the concentration of enzyme used to achieve robust assay window. The alpha, beta, and delta assays are run at 0.5, 1, and 0.3 nM enzymes and the gamma assay is run at 5 nM enzyme. The ATP concentration is 100 uM in the alpha, beta, and delta assays and 50 uM ATP in the gamma assay. All reactions are run at 5 uM PIP2.
Compounds are serially diluted (3-fold in 100% DMSO) across a 384-well polypropylene source plated from column 3 to column 12 and column 13 to column 22, to yield 10 concentration dose response for each test compound. Columns 1, 2, 23 and 24 contain either only DMSO or pharmacological known control inhibitor.
The PI3-Kinase biochemical assay was optimized using the HTRF kit provided by Upstate (Millipore). The assay kit contains six reagents: 1) 4× Reaction Buffer; 2) native PIP2 (substrate); 3) Stop (EDTA); 4) Detection Mix A (Streptavidin-APC); 5) Detection Mix B (Eu-labeled Anti-GST plus GST-tagged PH-domain); 6) Detection Mix C.
PI3Kinase Reaction Buffer is prepared by dilution the stock 1:4 with de-ionized water. […] Enzyme addition and compound pre-incubation are initiated by the addition of 1.25 ul of PI3K (at twice its final concentration) in the 1× reaction buffer to all wells using a BioRaptor. Plates are incubated at room temperature for 15 minutes. Reactions are initiated by addition of 1.25 ul of 2× substrate solution (PIP2 and ATP in 1× reaction buffer) using BioRaptor. Plates are incubated in humidified chamber at room temperature for one hour. Reactions are quenched by addition of 0.625 uL of stop solution to all wells using the BioRaptor. The quenched reactions are then processed to detect product formation by adding 0.625 uL of Detection Solution to all wells using the BioRaptor (Detection mix C, Detection Mix A, and Detection Mix B combined together in an 18:1:1 ratio prepared 2 hours prior to use).
The loss of the HTRF signal is due to the displacement of biotinylated-PIP3 from the PH domain by the PI3K-dependent conversion of PIP2 to PIP3. This loss of signal is nonlinear with respect to both increasing product and time. This non-linear detection will impact accuracy of IC50 calculations; therefore, there is a need for a correction factor to obtain more accurate IC50 values. This correction is derived from a PIP3 standard curve run in a separate assay plate. All data were calculated using the ratio of acceptor (APC) to donor (Europium) fluorescence in each well of the assay plate. […] An IC50 was then calculated fitting the % inhibition data to the equation: % inhibition=min+(Max−min)/1+([inhibitor]/IC50)^n) where min is the % inhibition with inhibitor, max is the signal in DMSO control, and n is the Hill slope.
The determination of relative selectivity for a given compound is defined as the relative ratio of the (PI3K-alphalC50 value/PI3K-delta IC50 value).

T1 sequence (O00329 whole entry, canonical isoform): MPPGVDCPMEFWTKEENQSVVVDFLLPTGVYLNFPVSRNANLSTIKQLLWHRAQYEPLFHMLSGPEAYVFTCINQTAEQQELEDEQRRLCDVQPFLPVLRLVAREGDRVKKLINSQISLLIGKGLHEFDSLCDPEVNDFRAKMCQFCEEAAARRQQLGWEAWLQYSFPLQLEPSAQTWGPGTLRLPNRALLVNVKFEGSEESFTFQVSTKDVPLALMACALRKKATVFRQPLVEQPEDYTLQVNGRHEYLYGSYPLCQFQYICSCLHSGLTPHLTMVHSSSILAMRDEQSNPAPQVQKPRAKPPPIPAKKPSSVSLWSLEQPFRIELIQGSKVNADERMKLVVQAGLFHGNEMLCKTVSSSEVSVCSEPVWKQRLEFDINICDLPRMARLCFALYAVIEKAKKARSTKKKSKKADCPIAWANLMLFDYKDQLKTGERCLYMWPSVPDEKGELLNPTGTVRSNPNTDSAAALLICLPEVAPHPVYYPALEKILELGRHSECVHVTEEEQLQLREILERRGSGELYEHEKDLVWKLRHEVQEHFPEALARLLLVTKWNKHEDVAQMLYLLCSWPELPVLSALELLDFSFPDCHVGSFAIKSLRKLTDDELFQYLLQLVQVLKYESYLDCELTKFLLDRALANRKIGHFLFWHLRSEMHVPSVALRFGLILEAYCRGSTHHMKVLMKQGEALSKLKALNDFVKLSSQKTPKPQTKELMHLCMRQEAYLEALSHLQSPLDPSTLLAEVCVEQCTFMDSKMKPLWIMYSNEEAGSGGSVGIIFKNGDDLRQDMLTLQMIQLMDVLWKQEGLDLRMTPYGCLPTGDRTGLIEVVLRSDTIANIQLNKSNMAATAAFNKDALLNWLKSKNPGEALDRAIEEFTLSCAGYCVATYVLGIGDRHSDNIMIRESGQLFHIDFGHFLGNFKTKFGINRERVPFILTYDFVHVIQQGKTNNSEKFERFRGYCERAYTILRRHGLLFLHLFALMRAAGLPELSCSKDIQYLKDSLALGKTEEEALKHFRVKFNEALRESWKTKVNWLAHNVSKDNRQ
T1 sequence (P27986 whole entry partner, canonical isoform): as the sequence (P27986 whole entry partner, canonical isoform) above

pIC50 (PI3K-delta)	Selectivity versus PI3Kalpha (PI3K-alpha)	Structure (SMILES)
> 9.00	>10	CCn1c(-c2ccc(OC)nc2)nc2c(N[C@H]3CCN(C(=O)C4CC4)C3)ncnc21 [Compound 2-50, N-[(3S)-1-(cyclopropylcarbonyl)pyrrolidin-3-yl]-9-ethyl-8-(6-methoxypyridin-3-yl)-9H-purin-6-amine]
> 9.00	>10	CCn1c(-c2cnc(C)nc2)nc2c(N[C@H]3CCN(C(=O)[C@H]4C[C@@H](OC)C4)C3)ncnc21 [Compound 2-39, 9-ethyl-N-{(3S)-1-[(cis-3-methoxycyclobutyl)carbonyl]pyrrolidin-3-yl}-8-(2-methylpyrimidin-5-yl)-9H-purin-6-amine]
8.28	>10	CCn1c(-c2cnc(C)nc2)nc2c(N[C@H]3CCN(C(=O)NC4CCC4)C3)ncnc21 [Compound 12-22, (3S)-N-cyclobutyl-3-{[9-ethyl-8-(2-methylpyrimidin-5-yl)-9H-purin-6-yl]amino}pyrrolidine-1-carboxamide]
8.28	>10	CCn1c(C(F)F)nc2c(N[C@H]3CCN(C(=O)N4CCC4)C3)ncnc21 [Compound 7-27, N-[(3S)-1-(azetidin-1-ylcarbonyl)pyrrolidin-3-yl]-8-(difluoromethyl)-9-ethyl-9H-purin-6-amine]
7.49	>10	CCn1c(-c2cnc(C)nc2)nc2c(N[C@H]3CC[C@@H](C(=O)OC)C3)ncnc21 [Compound 5-3, methyl (1R,3S)-3-{[9-ethyl-8-(2-methylpyrimidin-5-yl)-9H-purin-6-yl]amino}cyclopentanecarboxyl-ate]
8.35	>10	CCn1c(-c2cnc(C)nc2)nc2c(NC3CN(C(=O)C4CC4)CC3(C)C)ncnc21 (racemic) [Compound 2-95, (R and S)-N-[1-(cyclopropylcarbonyl)-4,4-dimethylpyrrolidin-3-yl]-9-ethyl-8-(2-methylpyrimidin-5-yl)-9H-purin-6-amine]
7.85	>10	CCn1c(-c2cnc(C)nc2)nc2c(N[C@H]3CCN(c4nccc5sccc45)C3)ncnc21 [Compound 4-13, 9-ethyl-8-(2-methylpyrimidin-5-yl)-N-[(3S)-1-thieno[3,2-c]pyridin-4-y 1pyrrolidin-3-yl]-9H-purin-6-amine]
8.77	>10	CCn1c(-c2cnc(C)nc2)nc2c(N[C@H]3CCN(C(=O)C4CCC4)C3)ncnc21 [Compound 2-22, (S)-cyclobutyl(3-((9-ethyl-8-(2-methylpyrimidin-5-yl)-9H-purin-6-yl)amino)pyrrolidin-1-yl)methanone]
7.00	>10	CCn1c(N(C)CC(C)C)nc2c(N[C@H]3CCN(C(=O)C4CC4)C3)ncnc21 [Compound 8-4, cyclopropyl[(3S)-3-({9-ethyl-8-[methyl(2-methylpropyl)amino]-9H-purin-6-yl}amino)pyrrolidin-1-yl]methanone]
8.47	>10	CCn1c(-c2cnc(C)nc2)nc2c(NC3CN(C(=O)C4CC4)CC3F)ncnc21 (single isomer, unassigned) [Compound 3-21, N-[(3R,4R or 3S,4S)-1-(cyclopropylcarbonyl)-4-fluoropyrrolidin-3-yl]-9-ethyl-8-(2-methylpyrimidin-5-yl)-9H-purin-6-amine]
7.38	>10	CCCN1CC[C@H](Nc2ncnc3c2nc(-c2cnn(CC)c2C)n3C)C1 [Compound 10-1, 8-(1-ethyl-5-methyl-1H-pyrazol-4-yl)-9-methyl-N-[(3S)-1-propylpyrrolidin-3-yl]-9H-purin-6-amine]
8.15	>10	CCn1c(-c2cnc(C)nc2)nc2c(N[C@H]3CCN(C(=O)NCc4ccco4)C3)ncnc21 [Compound 12-21, (3S)-3-{[9-ethyl-8-(2-methylpyrimidin-5-yl)-9H-purin-6-yl]amino}-N-(furan-2-ylmethyl)pyrrolidine-1-carboxamide]
> 9.00	>10	CCn1c(-c2ccc(C(F)(F)F)nc2)nc2c(N[C@H]3CCN(c4ccccn4)C3)ncnc21 [Compound 4-4, 9-ethyl-N-[(3S)-1-pyridin-2-ylpyrrolidin-3-yl]-8-[6-(trifluoromethyl)pyridin-3-yl]-9H-purin-6-amine]
8.35	>10	CCC(=O)N1CC[C@H](Nc2ncnc3c2nc(-c2ccc(C)nc2)n3C)C1 [Compound 3-5, (S)-1-(3-((9-methyl-8-(6-methylpyridin-3-yl)-9H-purin-6-yl)amino)pyrrolidin-1-yl)propan-1-one]
7.68	>10	CCCN1CC(Nc2ncnc3c2nc(-c2cnc(C)nc2)n3CC)CCC1=O (racemic) [Compound 14-5, 5(S and R)-{[9-ethyl-8-(2-methylpyrimidin-5-yl)-9H-purin-6-yl]amino}-1-propylpiperidin-2-one]
6.64	>10	CCn1c(CCOC)nc2c(N[C@H]3CCN(C(=O)C4CC4)C3)ncnc21 [Compound 7-22, N-[(3S)-1-(cyclopropylcarbonyl)pyrrolidin-3-yl]-9-ethyl-8-(2-methoxyethyl)-9H-purin-6-amine]
7.92	>10	CCn1c(C(=O)N[C@H](C)C2CC2)nc2c(N[C@H]3CCN(C(=O)C4CC4)C3)ncnc21 [Compound 6-13, 6-{[(3S)-1-(cyclopropylcarbonyl)pyrrolidin-3-yl]amino}-N-[(1R)-1-cyclopropylethyl]-9-ethyl-9H-purine-8-carboxamide]
> 9.00	>10	CCn1c(-c2cnc(C)nc2)nc2c(N[C@H]3CCN(C(=O)C4CC45CCCC5)C3)ncnc21 (single isomer, unassigned) [Compound 2-35, 9-ethyl-8-(2-methylpyrimidin-5-yl)-N-[(3S)-1-((R or S)-spiro[2.4]hept-1-ylcarbonyl)pyrrolidin-3-yl]-9H-purin-6-amine]
8.03	>10	CCn1c(-c2cnc(C)nc2)nc2c(N[C@H]3CCN(C(=O)NCC4CCS(=O)(=O)C4)C3)ncnc21 (mixture of isomers) [Compound 12-20, (3S)-N-[((S and R)-1,1-dioxidotetrahydrothiophen-3-yl)methyl]-3-{[9-ethyl-8-(2-methylpyrimidin-5-yl)-9H-purin-6-yl]amino}pyrrolidine-1-carboxamide]
9.00	>10	CCn1c(-c2cnc(OC)c(F)c2)nc2c(N[C@H]3CCN(C(=O)c4cocn4)C3)ncnc21 [Compound 3A-1, 9-ethyl-8-(5-fluoro-6-methoxypyridin-3-yl)-N-[(3S)-1-(1,3-oxazol-4-ylcarbonyl)pyrrolidin-3-yl]-9H-purin-6-amine]
6.92	>10	CCc1nc2c(N[C@H]3CCN(C(=O)C4CC4)C3)ncnc2n1CC [Compound 7-23, N-[(3S)-1-(cyclopropylcarbonyl)pyrrolidin-3-yl]-8,9-diethyl-9H-purin-6-amine]
7.68	>10	CCn1c(-c2cnc(C)nc2)nc2c(N[C@H]3CCN(C(=O)OCC(F)(F)F)C3)ncnc21 [Compound 13-1, 2,2,2-trifluoroethyl (3S)-3-{[9-ethyl-8-(2-methylpyrimidin-5-yl)-9H-purin-6-yl]amino}pyrrolidine-1-carboxylate]
> 9.00	>10	CCn1c(-c2cnc(C)nc2)nc2c(N[C@H]3CCN(C(=O)OC(C)(C)C)C3)ncnc21 [Compound 1-13, (S)-tert-butyl 3-((9-ethyl-8-(2-methylpyrimidin-5-yl)-9H-purin-6-yl)amino)pyrrolidine-1-carboxylate]
7.66	>10	CCn1c(-c2cnc(C)nc2)nc2c(N[C@H]3CCN(C(=O)C4(O)CCCC4)C3)ncnc21 [Compound 2-58, 1-{[(3S)-3-{[9-ethyl-8-(2-methylpyrimidin-5-yl)-9H-purin-6-yl]amino}pyrrolidin-1-yl]carbonyl}cyclopentanol]
6.82	>10	CCn1c(C(C)(C)C)nc2c(N[C@H]3CCN(C(=O)C4CC4)C3)ncnc21 [Compound 7-24, 8-tert-butyl-N-[(3S)-1-(cyclopropylcarbonyl)pyrrolidin-3-yl]-9-ethyl-9H-purin-6-amine]
8.77	>10	CCn1c(-c2cnc(C)nc2)nc2c(N[C@H]3CCN(C(=O)[C@H]4C[C@H](OC)C4)C3)ncnc21 [Compound 2-38, 9-ethyl-N-{(3S)-1-[(trans-3-methoxycyclobutyl)carbonyl]pyrrolidin-3-yl}-8-(2-methylpyrimidin-5-yl)-9H-purin-6-amine]
8.66	>10	CCC(=O)N1CC[C@H](N(C)c2ncnc3c2nc(-c2cnc(OC)c(C)c2)n3CC)C1 [Compound 2-8, (S)-1-(3-((9-ethyl-8-(6-methoxy-5-methylpyridin-3-yl)-9H-purin-6-yl)(methyl)amino)pyrrolidin-1-yl)propan-1-one]
> 9.00	>10	CCn1c(-c2cnc(OC)c(F)c2)nc2c(N[C@H]3CCN(C(=O)c4cncn4C)C3)ncnc21 [Compound 3A-2, 9-ethyl-8-(5-fluoro-6-methoxypyridin-3-yl)-N-{(3S)-1-[(1-methyl-1H-imidazol-5-yl)carbonyl]pyrrolidin-3-yl}-9H-purin-6-amine]
> 9.00	>10	CCn1c(-c2ccc(OC)nc2)nc2c(N[C@H]3CCN(C(=O)C4CCOCC4)C3)ncnc21 [Compound 3A-3, 9-ethyl-8-(6-methoxypyridin-3-yl)-N-[(3S)-1-(tetrahydro-2H-pyran-4-ylcarbonyl)pyrrolidin-3-yl]-9H-purin-6-amine]
